One experiment relates to M. smegmatis ΔprcAB. The format is cell-based. The note with it: for M. smegmatis ΔprcAB MIC50: 24 h exposure, OD600, concentration inhibiting 50% of growth; for improvement of bacterial-growth inhibition compared to compound 1: M. smegmatis ΔprcAB.
A further experiment has as its target HepG2 proteasome (Homo sapiens, UniProt P20618+P28074). In words: Cell-based proteasome CT-like peptidase inhibition assay (Proteasome-Glo).
Another experiment addresses ClpP1P2 (Mycolicibacterium smegmatis, UniProt A0R197+A0R198). In words: ClpP1P2 inhibition whole-cell RFP-SsrA reporter assay. The note with it: 3 h incubation.
[1] abbreviates: M. smegmatis ΔprcAB IC50 (μM) for ClpP1P2, whole-cell RFP-SsrA reporter.
The mark [2] stands for this setting: read-out: IC50 (μM) for HepG2 proteasome, HepG2 cells, 2 h treatment, chymotrypsin-like site.
[3] abbreviates: read-out: M. smegmatis ΔprcAB IC50 (μM) for ClpP1P2, whole-cell RFP-SsrA reporter.

Values joined by “and” are separate entries in the source; they are usually repeats but may differ in a detail not shown here. Equal values may be shown once. Read-outs that look alike come from different tables or passages of the source. A value given as a limit tells only on which side of the number the result lay.

Chain of ClpP1P2 (A0R198 4-203): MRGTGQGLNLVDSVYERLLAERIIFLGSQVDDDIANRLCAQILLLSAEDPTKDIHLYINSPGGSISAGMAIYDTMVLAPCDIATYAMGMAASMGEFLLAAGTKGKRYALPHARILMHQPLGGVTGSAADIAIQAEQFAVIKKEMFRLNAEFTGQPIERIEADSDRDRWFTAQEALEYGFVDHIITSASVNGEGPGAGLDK
Chain of ClpP1P2 (A0R197 17-218): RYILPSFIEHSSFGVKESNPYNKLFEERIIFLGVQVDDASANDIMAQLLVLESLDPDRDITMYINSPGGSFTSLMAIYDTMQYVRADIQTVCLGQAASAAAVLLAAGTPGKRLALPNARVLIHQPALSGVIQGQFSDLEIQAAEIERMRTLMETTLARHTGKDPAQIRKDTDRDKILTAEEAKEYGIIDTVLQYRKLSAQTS
Protocol for HepG2 proteasome: A cell-based CT-like peptidase assay was performed using the Proteasome-Glo cell-based assay reagent (Promega) according to the manufacturer's guidelines. Briefly, HepG2 cells (10^4 cells/well) were treated with the compounds indicated in the figures for 2 h, followed by incubation with the luminescent substrate for 10 min. Luminescence was detected with a Tecan M200 Pro plate reader.

For the compound `CC(C)C[C@H](NC(=O)[C@H](Cc1ccccc1)NC(=O)c1ncc(-c2ccccc2)o1)B(O)O` (mixture of isomers) [Compound 42, ((R)-3-methyl-1-((S)-3-phenyl-2-(5-phenyloxazole-2-carboxamido)propanamido)butyl)boronic acid], the “M. smegmatis ΔprcAB MIC50” value in the experiment with M. smegmatis ΔprcAB was 8 ± 0 µM. For the same compound, the 50% inhibitory concentration (IC50) (commonly the concentration that gives 50% inhibition) on HepG2 proteasome was 0.006 ± 0.001 µM; against ClpP1P2 (setting [1]), 6.7 ± 4.1 µM.

With `CC(C)C[C@H](NC(=O)[C@H](Cc1ccccc1)NC(=O)[C@H](Cc1ccccc1)NC(=O)c1cnccn1)B(O)O` [Compound 44], the “M. smegmatis ΔprcAB MIC50” value in the experiment on M. smegmatis ΔprcAB amounted to 75 ± 0 µM. Moreover, the IC50 was 0.006 ± 0.001 µM against HepG2 proteasome and > 200 µM against ClpP1P2 (setting [1]).

`CC(C)C[C@H](NC(=O)[C@H](Cc1ccccc1)NC(=O)c1ccccc1)B(O)O` [Compound 35, ((R)-1-((S)-2-benzamido-3-phenylpropanamido)-3-methylbutyl)boronic acid]: in the experiment with M. smegmatis ΔprcAB, the “M. smegmatis ΔprcAB MIC50” value stood at 3.5 ± 0.5 µM. In addition, the results for the IC50 against HepG2 proteasome and against ClpP1P2 (setting [1]) were 0.006 ± 0.001 µM and 3.3 ± 0.5 µM, respectively.

As to `O=C(N[C@@H](Cc1ccccc1)C(=O)N[C@@H](CCc1ccccc1)B(O)O)c1cnc(-c2ccccc2)nc1` [Compound 55, ((R)-3-phenyl-1-((S)-3-phenyl-2-(2-phenylpyrimidine-5-carboxamido)propanamido)propyl)boronic acid], in the experiment with M. smegmatis ΔprcAB, the “M. smegmatis ΔprcAB MIC50” value worked out at 5.5 ± 0.5 µM. Moreover, the IC50 is 0.06 µM against HepG2 proteasome and 6 µM on ClpP1P2 (setting [1]).

On to `CCCCC[C@H](NC(=O)[C@H](Cc1ccccc1)NC(=O)c1cnccn1)B(O)O` [Compound 27, ((R)-1-((S)-3-phenyl-2-(pyrazine-2-carboxamido)propanamido)hexyl)boronic acid], for which, in the experiment on M. smegmatis ΔprcAB, the “M. smegmatis ΔprcAB MIC50” value is 3 ± 0 µM and the “improvement of bacterial-growth inhibition compared to compound 1” value worked out at 2 fold. In addition, the IC50 against HepG2 proteasome amounted to 0.03 µM. At ClpP1P2 (setting [1]), 4 µM corresponded to half-maximal inhibition (IC50).

For `O=C(N[C@@H](Cc1ccccc1)C(=O)N[C@H](B(O)O)C1CCCCC1)c1cnccn1` [Compound 28, ((R)-cyclohexyl((S)-3-phenyl-2-(pyrazine-2-carboxamido)propanamido)methyl)boronic acid], the “M. smegmatis ΔprcAB MIC50” value with M. smegmatis ΔprcAB was found to be 16 ± 4 µM. Moreover, the figures for the IC50 on HepG2 proteasome and at ClpP1P2 (setting [1]) were 0.155 ± 0.025 µM and 33 ± 12 µM, respectively.

As for `CC(C)C[C@H](NC(=O)[C@H](Cc1ccccc1)NC(=O)c1cccnc1)B(O)O` [Compound 36, ((R)-3-methyl-1-((S)-2-(nicotinamido)-3-phenylpropanamido)butyl)boronic acid], the “M. smegmatis ΔprcAB MIC50” value in the experiment with M. smegmatis ΔprcAB was 6 ± 0 µM. Further, the IC50 against HepG2 proteasome is 0.03 µM; at ClpP1P2 (setting [1]), 4 ± 1.4 µM.

Turning to `O=C(N[C@@H](Cc1ccccc1)C(=O)N[C@@H](CC1CCCCC1)B(O)O)c1cnccn1` (mixture of isomers) [Compound 29, ((R)-2-cyclohexyl-1-((S)-3-phenyl-2-(pyrazine-2-carboxamido)propanamido)ethyl)boronic acid], the “M. smegmatis ΔprcAB MIC50” value in the experiment with M. smegmatis ΔprcAB was 22.5 ± 2.5 µM. Moreover, the IC50 at HepG2 proteasome came out at 0.127 ± 0.002 µM; against ClpP1P2 (setting [1]), 27 ± 16 µM.

Consider `CC(C)(C(=O)N[C@@H](Cc1ccccc1)C(=O)N[C@@H](CCc1ccccc1)B(O)O)n1cccc1` [Compound 54, ((R)-1-((S)-2-(2-methyl-2-(1H-pyrrol-1-yl)propanamido)-3-phenylpropanamido)-3-phenylpropyl)boronic acid], for which, in the experiment with M. smegmatis ΔprcAB, the “M. smegmatis ΔprcAB MIC50” value is 30 ± 0 µM. Also, the IC50 turned out to be 0.5 µM against HepG2 proteasome and 25 µM against ClpP1P2 (setting [1]).

With `CC(=O)N[C@@H](Cc1ccccc1)C(=O)N[C@@H](Cc1ccccc1)B(O)O` [Compound 46, ((R)-1-((S)-2-acetamido-3-phenylpropanamido)-2-phenylethyl)boronic acid], in the experiment with M. smegmatis ΔprcAB, the “M. smegmatis ΔprcAB MIC50” value worked out at 50 ± 0 µM. The half-maximal inhibitory concentration (IC50) came out at 0.218 ± 0.158 µM against HepG2 proteasome and 50 µM against ClpP1P2 (setting [1]).

Take “((R)-1-((S)-2-(indolizine-2-carboxamido)-3-phenylpropanamido)-3-methylbutyl)boronic acid [Compound 40]”: the “M. smegmatis ΔprcAB MIC50” value in the experiment with M. smegmatis ΔprcAB came to 8.3 ± 4.5 µM. Also, the results for the IC50 at HepG2 proteasome (setting [2]) and at ClpP1P2 (setting [3]) were 0.023 ± 0.008 µM and 9 ± 3 µM, respectively.

In the case of `CC(C)C[C@H](NC(=O)[C@H](Cc1ccccc1)NC(=O)c1cnc(-c2ccccc2)nc1)B(O)O` (mixture of isomers) [Compound 38, ((R)-3-methyl-1-((S)-3-phenyl-2-(2-phenylpyrimidine-5-carboxamido)propanamido)butyl)boronic acid], the “M. smegmatis ΔprcAB MIC50” value in the experiment on M. smegmatis ΔprcAB worked out at 2 ± 0 µM. The IC50 at HepG2 proteasome came to 0.006 ± 0.001 µM; against ClpP1P2 (setting [1]) it was 1.7 ± 1 µM.

Turning to `CC(C)C[C@H](NC(=O)[C@@H](N)Cc1ccccc1)B(O)O` [Compound 26, ((R)-1-((S)-2-amino-3-phenylpropanamido)-3-methylbutyl)boronic acid], in the experiment with M. smegmatis ΔprcAB, the “M. smegmatis ΔprcAB MIC50” value is 100 ± 0 µM. The values for the IC50 on HepG2 proteasome and at ClpP1P2 (setting [1]) were 0.08 ± 0.01 µM and > 200 µM, respectively.

In the case of `CC(C)C[C@H](NC(=O)[C@H](C)NC(=O)c1cnccn1)B(O)O` [Compound 56, ((R)-3-methyl-1-((S)-2-(pyrazine-2-carboxamido)propanamido)butyl)boronic acid], the “M. smegmatis ΔprcAB MIC50” value with M. smegmatis ΔprcAB came to 76.7 ± 20.5 µM. For the same compound, the values for the IC50 on HepG2 proteasome and at ClpP1P2 (setting [1]) were 0.225 ± 0.025 µM and 100 µM, respectively.

With `O=C(N[C@@H](Cc1ccccc1)C(=O)N[C@@H](CCC1CCCCC1)B(O)O)c1cnccn1` [Compound 30, ((R)-3-cyclohexyl-1-((S)-3-phenyl-2-(pyrazine-2-carboxamido)propanamido)propyl)boronic acid], the “M. smegmatis ΔprcAB MIC50” value in the experiment on M. smegmatis ΔprcAB was 3.5 µM and 3.5 ± 0.5 µM. The IC50 was determined as 0.5 ± 0.01 µM on HepG2 proteasome and 25 µM against ClpP1P2 (setting [1]).

On to `CC(C)C[C@H](NC(=O)CCc1ccccc1)B(O)O` [Compound 25, (R)-(3-methyl-1-(3-phenylpropanamido)butyl)boronic acid], for which the “M. smegmatis ΔprcAB MIC50” value with M. smegmatis ΔprcAB is >200 µM. The results for the IC50 on HepG2 proteasome and at ClpP1P2 (setting [1]) were 0.25 µM and > 200 µM, respectively.

Turning to “((R)-1-((S)-2-(indolizine-3-carboxamido)-3-phenylpropanamido)-3-methylbutyl)boronic acid [Compound 41]”, the “M. smegmatis ΔprcAB MIC50” value in the experiment on M. smegmatis ΔprcAB came out at 15 ± 0 µM. Besides, the figures for the IC50 on HepG2 proteasome (setting [2]) and on ClpP1P2 (setting [3]) were 0.006 ± 0.001 µM and 11.3 ± 0.9 µM, respectively.

On to `CC(C)C[C@H](NC(=O)[C@H](Cc1ccccc1)NC(=O)c1cccc2ncsc12)B(O)O` [Compound 43], for which, in the experiment with M. smegmatis ΔprcAB, the “M. smegmatis ΔprcAB MIC50” value stood at 3 ± 0 µM and the “improvement of bacterial-growth inhibition compared to compound 1” value was found to be 2 fold. At HepG2 proteasome, this compound gave an IC50 of 0.006 ± 0.001 µM. The IC50 on ClpP1P2 (setting [1]) was 2.75 ± 1.25 µM.

As for `CC(C)C[C@H](NC(=O)[C@H](Cc1ccccc1)NC(=O)c1cc(-c2ccccc2)ncn1)B(O)O` [Compound 39, ((R)-3-methyl-1-((S)-3-phenyl-2-(6-phenylpyrimidine-4-carboxamido)propanamido)butyl) boronic acid], in the experiment with M. smegmatis ΔprcAB, the “M. smegmatis ΔprcAB MIC50” value is >200 µM. In addition, the IC50 against HepG2 proteasome was 0.006 ± 0.001 µM; against ClpP1P2 (setting [1]) it was > 200 µM.

Take `CC(=O)N[C@@H](Cc1ccccc1)C(=O)N[C@@H](CC(C)C)B(O)O` [Compound 33, ((R)-1-((S)-2-acetamido-3-phenylpropanamido)-3-methylbutyl)boronic acid]: the “M. smegmatis ΔprcAB MIC50” value in the experiment with M. smegmatis ΔprcAB is 50 ± 0 µM. The IC50 on HepG2 proteasome is 0.01 ± 0.005 µM; against ClpP1P2 (setting [1]) it was 42 µM and 41.7 µM.

For the compound `O=C(N[C@@H](Cc1ccccc1)C(=O)N[C@@H](CCC1CCCCC1)B(O)O)c1ccccc1F` [Compound 49, ((R)-3-cyclohexyl-1-((S)-2-(2-fluorobenzamido)-3-phenylpropanamido)propyl)boronic acid], the “M. smegmatis ΔprcAB MIC50” value with M. smegmatis ΔprcAB is >200 µM. Moreover, the IC50 is 0.5 µM at HepG2 proteasome and > 200 µM on ClpP1P2 (setting [1]).

For `CC(C)C[C@H](NC(=O)[C@H](Cc1ccccc1)NC(=O)Cc1ccccc1)B(O)O` (mixture of isomers) [Compound 34, ((R)-3-methyl-1-((S)-3-phenyl-2-(2-phenylacetamido)propanamido)butyl)boronic acid], in the experiment on M. smegmatis ΔprcAB, the “M. smegmatis ΔprcAB MIC50” value worked out at 12 ± 0 µM. Also, the IC50 is 0.006 ± 0.001 µM against HepG2 proteasome and 9 ± 3 µM at ClpP1P2 (setting [1]).

`O=C(N[C@@H](Cc1ccccc1)C(=O)N[C@@H](CCc1ccccc1)B(O)O)c1ccc(C(F)(F)F)cc1` [Compound 52, ((R)-3-phenyl-1-((S)-3-phenyl-2-(4-(trifluoromethyl)benzamido)propanamido)propyl)boronic acid]: in the experiment on M. smegmatis ΔprcAB, the “M. smegmatis ΔprcAB MIC50” value was found to be 11 ± 1 µM. Besides, the IC50 came to 0.1 µM against HepG2 proteasome and 12 µM against ClpP1P2 (setting [1]).

With `CC(C)(C(=O)N[C@@H](Cc1ccccc1)C(=O)N[C@@H](CCC1CCCCC1)B(O)O)n1cccc1` [Compound 50, ((R)-3-cyclohexyl-1-((S)-2-(2-methyl-2-(1H-pyrrol-1-yl)propanamido)-3-phenylpropanamido)propyl)boronic acid], the “M. smegmatis ΔprcAB MIC50” value with M. smegmatis ΔprcAB stood at 150 ± 0 µM. The results for the IC50 against HepG2 proteasome and against ClpP1P2 (setting [1]) were > 0.5 µM and 200 µM, respectively.

Turning to `CC(C)C[C@H](NC(=O)[C@H](Cc1ccccc1)NC(=O)N1CCCCC1)B(O)O` [Compound 45, ((R)-3-methyl-1-((S)-3-phenyl-2-(piperidine-1-carboxamido)propanamido)butyl)boronic acid], the “M. smegmatis ΔprcAB MIC50” value in the experiment on M. smegmatis ΔprcAB turned out to be 19 ± 5.4 µM. In addition, the concentration for half-maximal inhibition (IC50) against HepG2 proteasome stood at 0.023 ± 0.008 µM; on ClpP1P2 (setting [1]), 22.5 ± 2.5 µM.

On to `O=C(N[C@@H](Cc1ccccc1)C(=O)N[C@@H](CCC1CCCCC1)B(O)O)c1cccc2ncsc12` [Compound 47, ((R)-1-((S)-2-(benzo[d]thiazole-7-carboxamido)-3-phenylpropanamido)-3-cyclohexylpropyl)boronic acid], for which, in the experiment on M. smegmatis ΔprcAB, the “M. smegmatis ΔprcAB MIC50” value is >200 µM. Further, the IC50 was 0.288 ± 0.088 µM at HepG2 proteasome and > 200 µM against ClpP1P2 (setting [1]).

(Values after article PMC5404560, “Towards Selective Mycobacterial ClpP1P2 Inhibitors with Reduced Activity against the Human Proteasome” (Antimicrobial Agents and Chemotherapy, 2017).)
